B1: ICAM-1: recombinant human ICAM-1-FC, soluble LFA-1 ligand (protein)
chain: QTSVSPSKVILPRGGSVLVTCSTSCDQPKLLGIETPLPKKELLLPGNNRKVYELSNVQEDSQPMCYSNCPDGQSTAKTFLTVYWTPERVELAPLPSWQPVGKNLTLRCQVEGGAPRANLTVVLLRGEKELKREPAVGEPAEVTTTVLVRRDHHGANFSCRTELDLRPQGLELFENTSAPYQLQTFVLPATPPQLVSPRVLEVDTQGTVVCSLDGLFPVSEAQVHLALGDQRLNPTVTYGNDSFSAKASVSVTAEDEGTQRLTCAVILGNQSQETLQTVTIYSFPAPNVILTKPEVSEGTEVTVKCEAHPRAKVTLNGVPAQPLGPRAQLLLKATPEDNGRSFSCSATLEVAGQLIHKNQTRELRVLYGPRLDERDCPGNWTWPENSQQTPMCQAWGNPLPELKCLKDGTFPLPIGESVTVTRDLEGTYLCRARSTQGEVTRKVTVNVLSPRYE
modifications: left off: a dimerising Fc or GST
notes: recombinant human ICAM-1-FC, soluble LFA-1 ligand
B2: ICAM-3: recombinant human ICAM3-FC, soluble LFA-1 ligand (protein)
chain: QEFLLRVEPQNPVLSAGGSLFVNCSTDCPSSEKIALETSLSKELVASGMGWAAFNLSNVTGNSRILCSVYCNGSQITGSSNITVYRLPERVELAPLPPWQPVGQNFTLRCQVEDGSPRTSLTVVLLRWEEELSRQPAVEEPAEVTATVLASRDDHGAPFSCRTELDMQPQGLGLFVNTSAPRQLRTFVLPVTPPRLVAPRFLEVETSWPVDCTLDGLFPASEAQVYLALGDQMLNATVMNHGDTLTATATATARADQEGAREIVCNVTLGGERREARENLTVFSFLGPIVNLSEPTAHEGSTVTVSCMAGARVQVTLDGVPAAAPGQPAQLQLNATESDDGRSFFCSATLEVDGEFLHRNSSVQLRVLYGPKIDRATCPQHLKWKDKTRHVLQCQARGNPYPELRCLKEGSSREVPVGIPFFVNVTHNGTYQCQASSSRGKYTLVVVMDIEAGSSH
modifications: left off: a dimerising Fc or GST
notes: recombinant human ICAM3-FC, soluble LFA-1 ligand

Assays:
[1] = tested on: ezrin; experiment: phosphotyrosine-protein based elisa for ezrin tyrosine phosphorylation upon ICAM-2 ligation; format: cell-based, human; details: Jurkat cells
Description: A) Expression levels of ICAM-2, vary across cell lines of different origins. Quantitative flow cytometry analysis was performed to assess the number of ICAM-2 surface molecules across transformed and untransformed fibroblasts, lymphocytes of T-cell and different B-cell differentiation states and myeloid lineages (see Material and Methods for elaboration). The number of surface molecules/cell is expressed as the mean (bar)+/−SD of triplicate experiments. B) Crosslinking of endogenous ICAM-2, induces ezrin tyrosine phosphorylation and enhanced ICAM-2, interaction. Jurkat cells were crosslinked for ICAM-2 using monoclonal antibody for the indicated times and subjected to immunoprecipitation/immunoblotting as indicated. C) Inhibition of ezrin phosphotyrosine by chemical inhibitors of src and Rho-dependent kinases. D) Ezrin phosphorylation and enhanced interaction with the p85, subunit of PI3K as a function of ICAM-2. Determined as described above. E) PDK-1, activity as a function of ICAM-2, ligation, as described above). F) PI3K and AKT localize to the membrane as a function of ICAM-2, ligation. Membrane/cytosolic fractionation was performed on ICAM-2, ligated Jurkat cells as a function of time and subjected to immunoblotting for PI3K and AKT.
In order to identify upstream kineses capable of tyrosine phosphorylating ezrin as a function of ICAM-2 ligation, we developed a phosphotyrosine-protein based elisa to screen for the inhibition of ezrin tyrosine phosphorylation in vivo by various known inhibitors of protein kineses (Perez and Nolan, manuscript in preparation). […] Given the design of the screen to detect tyrosine residue phosphorylation, we speculate that activation of Rho-dependent processes may be a prerequisite for ezrin to be tyrosine phosphorylated by src (elaborated below).

[2] = tested on: NIH3T3; experiment: staurosporine induced apoptosis in ICAM-2 transduced NIH3T3 (annexin-V binding, BrdU TUNEL); format: cell-based, murine
Description: A) Pharmacological inhibitors of PI3K abrogate ICAM-2's anti-apoptotic. ICAM-2, or vector transduced BaF3, cells were treated with staurosporine (1, μM) with (unfilled) or without (filled) the addition of 100, nM wortmannin for 24, hours (left bar graph). Apoptosis was determined by nuclear staining and fluorescence microscopy (left bar graph) and by annexin-V binding assay (right bar graph). The proportion of apoptotic cells in each culture without staurosporine was 8%+/−2. The percentage of apoptotic cells is expressed as the mean (bar)+SD of triplicate cultures. ICAM-2, 1CAM2-AC, or vector transduced NIH3T3, were treated with staurosporine ([…]) in the presence or absence of 10, μM LY294002, for 24, hours (right bar graph). DMSO vehicle served as negative control. The percentage of apoptotic cells is expressed as the mean (bar)+/−SD of triplicate cultures. B) Confocal images of PI3K and AKT localization in ICAM-2, (top) or vector control cells (bottom). C) Confocal images of ezrin and the p85, subunit of PI3K (green) localization in ICAM-2, (top) or vector control cells (bottom).
A) The anti-apoptotic effect of ICAM-2, is both wortmannin and LY294002, sensitive. ICAM-2, or vector transduced BaF3, cells were treated with staurosporine (1, μM) with (unfilled) or without (filled) the addition of 100, nM wortmannin for 24 hours. Apoptosis was determined by nuclear staining and fluorescence microscopy (left bar graph) and by annexin-V binding assay (right bar graph). The proportion of apoptotic cells in each culture without staurosporine was 8%±2. The percentage of apoptotic cells is expressed as the mean (bar)±SD of triplicate cultures. ICAM-2, ICAM2-ΔC, or vector transduced NIH3T3, were treated with staurosporine (1, μM) in the presence or absence of 10, μM LY294002, for 24, hours. DMSO vehicle served as negative control. The percentage of apoptotic cells is expressed as the mean (bar)±SD of triplicate cultures. B) ICAM-2, expressing NIH3T3, cells are sensitive to apoptosis in the presence of PI3K inhibitor LY294002. BrdU TUNEL assay was performed in staurosporine (1, μM) or LY294002, (10, μM) treated ICAM-2, ICAM2-ΔC, and control vector transduced NIH3T3, cells. The percentage of apoptotic cells is expressed as the mean (bar)±SD of triplicate cultures.
Apoptosis was determined either by counting pyknotic nuclei, annexin-V binding by flow cytometry, or TUNEL BrdU staining by flow cytometry as indicated. Apoptosis was induced either by staurosporine (1 μm), treatment with anti-mouse Fas (5 μq/ml Santa Cruz Biotechnology (SCB), […] Fas (5 μg/ml Jo2 Biomed) or anti-human Fas (10 ng/ml CH11 Kamiya Biomedical) as indicated in appropriate experiment, IL-3 withdrawal-(24 hrs) or as indicated. For pyknolic nuclei count, NIH3T3 cells were grown on glass coverslips and assayed for apoptosis. Suspension cells were analyzed by nuclear staining with 25 μM acridine orange/25 μm ethidium bromide or 5 μg/ml Hoechst 33342 (Molecular Probes, Eugene, Oreg.). Apoptosis was identified by the presence of characteristic pyknotic nuclei as described (Jacobson and Raff, 1995). At least 5 individual fields were photographed and counted using a Zeiss axioscope fluorescence microscope. For the survival assay 10^6 NIH3T3 cells were plated in 10 cm dishes and incubated overnight at 37° C. The cells were treated with 1 μM staurosporine for 24 hours. The cells were washed and cultured for 24 hours in complete medium. The cells were trypsinized and viable cells counted following trypan blue staining. Untreated cells were counted at the time of treatment. % survival represents (number of viable cells post-treatment)/(number of viable cells pretreatment). FACS based annexin-V-FITC/PI staining was done as described (PharMingen). TUNEL assay was performed as described by manufacturer of Apoptosis BrdU kit (Promega). […]

[3] = tested on: Syk; experiment: sICAM-2 induced Syk phosphorylation (phospho-tyrosine based ELISA, chemical genetic approach); format: cell-based; details: sICAM-2 stimulus
Text: (§1) E) depicts that LFA-1, induced phosphorylation of Pyk2, and Syk is dependent on PKC. We screened for the inhibition of sICAM-2, induced Pyk2, and Syk phosphorylation by chemical inhibitors to tyrosine kinases using a phospho-tyrosine based ELISA. Pyk2, phosphorylation was abrogated in the presence of PKC inhibitors bisindolymaleimide II (BIM II) and staurosporine (STP), in addition to tyrphostin A9, a specific Pyk2, inhibitor. a Pyk2, phosphorylation was also affected by inhibitors of phospholipase Cg (neomycin), inhibitors of Syk (piceatannol), and PKC inhibitor BIM I. Syk phosphorylation was completely abolished by inhibition of Pyk2, PLCg1, and strongly affected by PKC inhibitors. Thus, both Pyk2, and Syk phosphorylations were dependent on PKC activity, while Syk phosphorylation was additionally dependent on PLCg1, and Pyk2, activity. It was not possible to assess specific PKC isozymes by this method.
A chemical genetic approach was undertaken to determine the hierarchy of PKC, Pyk2, PLCg1, and Syk activities in response to sICAM-2, stimulus by verifying phosphorylation status of each kinase in the presence of respective chemical inhibitors. Inhibition of PKC with BIM II abrogated phosphorylation of Pyk2, PLCg1, and Syk. Inhibition of PLCg1, by neomycin abrogated phosphorylation of Syk, with no inhibition observed for Pyk2. […]

[4] = tested on: Pyk2; experiment: sICAM-2 induced Pyk2 phosphorylation (phospho-tyrosine based ELISA, chemical genetic approach); format: cell-based; details: for phosphorylation of Pyk2: chemical genetic approach, sICAM-2 stimulus; for sICAM-2 induced Pyk2 phosphorylation: phospho-tyrosine based ELISA
Text: as §1
(§2) A chemical genetic approach was undertaken to determine the hierarchy of PKC, Pyk2, PLCg1, and Syk activities in response to sICAM-2, stimulus by verifying phosphorylation status of each kinase in the presence of respective chemical inhibitors. Inhibition of PKC with BIM II abrogated phosphorylation of Pyk2, PLCg1, and Syk. Inhibition of PLCg1, by neomycin abrogated phosphorylation of Syk, with no inhibition observed for Pyk2. […] Thus, the upstream signaling events from LFA-1, to Raf-1, appear to involve PKC/Pyk2/PLCg1/Syk. […] We are currently pursuing these complexes in a separate study.

[5] = tested on: PLCg1; experiment: sICAM-2 induced PLCg1 phosphorylation (chemical genetic approach); format: cell-based; details: sICAM-2 stimulus
Text: as §2

[6] = tested on: CD56 CD8 cytotoxic lymphocyte subsets; experiment: intracellular perforin and granzyme-A in CD56CD8 subsets of human PBMC by flow cytometry; format: cell-based; details: for granzyme-A negative population: CD56+CD8high population; for changes in intracellular perforin or granzyme-A: CD56+CD8low population; for frequency of the perforin negative population: CD56+CD8med population
Description: IL-2, activated PBMC (shown in A-1 and A-3) were mock-treated (IgG) (A-2) , ICAM-1, (A2), ICAM-2, (A4), or ICAM-3, (A4) treated (10, μg/ml of FC fusion protein) for 12 hrs prior to incubation with target HL60, cells at a 50:1, E:T ratio for 4, hrs. Cells were then prepared for flow cytometry with CD8-CY5PE, CD56-PE surface stains, and perforin-CY5, and granzyme-A-FITC intracellular stains. Cells were gated for CD56^+CD8^low, CD56^+CD8^med, CD56^+, CD8^high, CD56^−, CD8^−, , CD56^−-CD8^high, populations as shown in A-1 and A-3 and population frequencies within appropriate gate. […] Results are representative of 3 independent experiments and were similar at 25:1 and 12.5:1 E:T ratios (data not shown). Manual calibration was performed. […] Perforin percentage was calculated from the following equation where MFI equals mean fluorescent intensity: 100×[(MFIexperimental−MFIisotype mAb)/(MFIcontrol−MFlisotype mAb)] Unstimulated cells were used as control.
(§3) Target cell lysis was measured by flow cytoemtric based detection of CFSE labeled HL60 cells. HL60 cells were labeled with 1 μg of CFSE (30 min, 37° C.). Targets were washed twice and mock treated, IL-2 activated (100 U/ml), CD3/CD28 activated (1 μg/ml), or treated with ICAM2 beads or soluble ICAM-1, -2, or 3 (10 μg/ml, 30 min, 37° C.) before plating at 10^4 target cells/well of a 96-well round bottom plate. CTLs were added at 50:1, 25:1, and 12.5:1 E:T ratio, and incubated at 37° C. for 4 hrs. Cells were then processed for multiparameter flow cytometry and intracellular perforin stain. Percent specific lysis was calculated by the following equation: % specific lysis=100-100×(experimental HL60 count/total control HL60 count). HL60 counts were detectable by the CFSE fluorescence. Percent perforin was calculated by the following equation: % perforin=100×[(experimental perforin MFI−isotype mAb MFI)/(total perforin MFI−isotype mAb MFI)]. MFI refers to mean fluorescent intensity of flow cytoemtric based intracellular detection. Cell conjugates were determined by flow cytometry as described (Morgan et al., 2001). Chemical inhibition was done at 10 μM of indicated compound (30 min, 37° C.) prior to stimulation as indicated. All experiments were performed in triplicate.

[7] = tested on: HL60 cells; experiment: FACS based effector-target killing assay, human PBMC against CFSE labeled HL60 cells; format: cell-based; details: 10 μg/ml, 50:1 E:T ratio, 4 hrs
Description: A) PBMC were either treated with ICAM-2, (10 μg/ml) in the presence of IL-2, for 12, hr and then incubated with CFSE labeled target HL60, cells at a 50:1, E:T ratio for 4, hrs. Remaining HL60, cells were quantified by flow cytometry. B) PBMC were treated with IL-2, (100, U/ml, 12, hrs) and treated with ICAM-1,-2, or 3, FC proteins (10, μg/ml) and used in a cytotoxicity assay as described above. Results are representative of 4, independent experiments.
as §3

Molecule | tyrosine phosphorylation of ezrin [1] | ICAM-2 induced survival signal ([2]; PKC isozyme inhibitors, system not specified) | effect on ICAM-2 anti-apoptotic effect, other kinase inhibitors ([2]; cell type not stated, data not shown) | phosphorylation of Syk [3] | phosphorylation of Pyk2 [4] | sICAM-2 induced Pyk2 phosphorylation [4] | phosphorylation of PLCg1 [5] | granzyme-A negative population [6] [%] | changes in intracellular perforin or granzyme-A [6] | frequency of the perforin negative population [6] [%] | target cell lysis of HL60 cells [7]
CN1CCCC1CCn1cc(C2=C(c3c[nH]c4ccccc34)C(=O)NC2=O)c2ccccc21 (stereo not drawn) [bisindolymaleimide II] | minor affects | did not abrogate | not abrogated | abrogated | abrogated | abrogated | abrogated |  |  |  | 
neomycin |  |  |  | abrogated | no inhibition | affected |  |  |  |  | 
B1 |  |  |  |  |  |  |  | 4.12 | no significant changes | 13.7 | did not initiate as potent a cytotoxic cell response
B2 |  |  |  |  |  |  |  | 3.07 | no significant changes | 19.8 | did not initiate as potent a cytotoxic cell response

From patent US8962263B2, “Methods and compositions for detecting the activation state of multiple proteins in single cells” (The Board of Trustees of the Leland Stanford Junior …, priority 2001, dated 2015)
